According to ChEMBL document CHEMBL3046000, “Design and synthesis of 1-(benzothiazol-5-yl)-1H-1,2,4-triazol-5-ones as protoporphyrinogen oxidase inhibitors” (Bioorg Med Chem, 2013):
pKi: −log10 of the molar value.

Columns and labels:
Amaranthus retroflexus [1] = test: Post emergence herbicidal activity against Amaranthus retroflexus seedlings assessed as plant growth inhibition at 37.5 g ai/ha measured 15 days after compound treatment under greenhouse conditions; format: functional; conditions: 360 h, read-out: GI
Echinochloa crus-galli [2] = test: Post emergence herbicidal activity against Echinochloa crus-galli (barnyard grass) seedlings assessed as plant growth inhibition at 75 g ai/ha measured 15 days after compound treatment under greenhouse conditions; format: functional; conditions: 360 h, read-out: GI
Setaria faberi [3] = test: Post-emergence herbicidal activity against Setaria faberi (Giant Foxtail) seedlings assessed as plant growth inhibition at 150 g ai/ha measured 15 days after compound treatment under greenhouse conditions; format: functional; conditions: 360 h, read-out: GI
Amaranthus retroflexus [4] = test: Post emergence herbicidal activity against Amaranthus retroflexus seedlings assessed as plant growth inhibition at 75 g ai/ha measured 15 days after compound treatment under greenhouse conditions; format: functional; conditions: 360 h, read-out: GI
Chenopodium album [5] = test: Post-emergence herbicidal activity against Chenopodium album seedlings assessed as plant growth inhibition at 37.5 g ai/ha measured 15 days after compound treatment under greenhouse conditions; format: functional; conditions: 360 h, read-out: GI
Echinochloa crus-galli [6] = test: Post emergence herbicidal activity against Echinochloa crus-galli (barnyard grass) seedlings assessed as plant growth inhibition at 150 g ai/ha measured 15 days after compound treatment under greenhouse conditions; format: functional; conditions: 360 h, read-out: GI
Brassica juncea [7] = test: Post-emergence herbicidal activity against Brassica juncea seedlings assessed as plant growth inhibition at 37.5 g ai/ha measured 15 days after compound treatment under greenhouse conditions; format: functional; conditions: 360 h, read-out: GI
Digitaria sanguinalis [8] = test: Post-emergence herbicidal activity against Digitaria sanguinalis (hairy crabgrass) seedlings assessed as plant growth inhibition at 75 g ai/ha measured 15 days after compound treatment under greenhouse conditions; format: functional; conditions: 360 h, read-out: GI
Setaria faberi [9] = test: Post-emergence herbicidal activity against Setaria faberi (Giant Foxtail) seedlings assessed as plant growth inhibition at 37.5 g ai/ha measured 15 days after compound treatment under greenhouse conditions; format: functional; conditions: 360 h, read-out: GI
Digitaria sanguinalis [10] = test: Post-emergence herbicidal activity against Digitaria sanguinalis (hairy crabgrass) seedlings assessed as plant growth inhibition at 150 g ai/ha measured 15 days after compound treatment under greenhouse conditions; format: functional; conditions: 360 h, read-out: GI
Amaranthus retroflexus [11] = test: Post emergence herbicidal activity against Amaranthus retroflexus seedlings assessed as plant growth inhibition at 150 g ai/ha measured 15 days after compound treatment under greenhouse conditions; format: functional; conditions: 360 h, read-out: GI
Chenopodium album [12] = test: Post-emergence herbicidal activity against Chenopodium album seedlings assessed as plant growth inhibition at 150 g ai/ha measured 15 days after compound treatment under greenhouse conditions; format: functional; conditions: 360 h, read-out: GI
Chenopodium album [13] = test: Post-emergence herbicidal activity against Chenopodium album seedlings assessed as plant growth inhibition at 75 g ai/ha measured 15 days after compound treatment under greenhouse conditions; format: functional; conditions: 360 h, read-out: GI
Brassica juncea [14] = test: Post-emergence herbicidal activity against Brassica juncea seedlings assessed as plant growth inhibition at 75 g ai/ha measured 15 days after compound treatment under greenhouse conditions; format: functional; conditions: 360 h, read-out: GI
[15] = molecular target: T1, Protoporphyrinogen oxidase, chloroplastic (Nicotiana tabacum, UniProt O24163); test: Inhibition of Nicotiana tabacum (tobacco) recombinant PPO assessed as protoporphyrin IX formation at room temperature by fluorimetric assay
T1 sequence (O24163 whole entry): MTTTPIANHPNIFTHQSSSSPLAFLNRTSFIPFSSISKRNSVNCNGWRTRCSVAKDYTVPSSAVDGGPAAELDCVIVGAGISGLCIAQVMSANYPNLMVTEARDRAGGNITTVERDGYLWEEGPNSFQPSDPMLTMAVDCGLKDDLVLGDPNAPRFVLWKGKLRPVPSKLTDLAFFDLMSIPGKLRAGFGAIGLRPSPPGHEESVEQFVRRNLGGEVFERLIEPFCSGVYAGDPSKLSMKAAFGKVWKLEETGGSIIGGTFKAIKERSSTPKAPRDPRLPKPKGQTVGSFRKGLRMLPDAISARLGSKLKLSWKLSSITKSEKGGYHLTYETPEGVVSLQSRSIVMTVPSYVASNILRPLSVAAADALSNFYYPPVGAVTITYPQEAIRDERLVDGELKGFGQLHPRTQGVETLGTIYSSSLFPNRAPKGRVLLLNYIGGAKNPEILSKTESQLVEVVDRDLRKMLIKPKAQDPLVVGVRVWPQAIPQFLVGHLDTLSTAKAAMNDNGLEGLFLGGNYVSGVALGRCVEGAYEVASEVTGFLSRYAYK

Setaria faberi [16] = test: Post-emergence herbicidal activity against Setaria faberi (Giant Foxtail) seedlings assessed as plant growth inhibition at 75 g ai/ha measured 15 days after compound treatment under greenhouse conditions; format: functional; conditions: 360 h, read-out: GI
Digitaria sanguinalis [17] = test: Post-emergence herbicidal activity against Digitaria sanguinalis (hairy crabgrass) seedlings assessed as plant growth inhibition at 37.5 g ai/ha measured 15 days after compound treatment under greenhouse conditions; format: functional; conditions: 360 h, read-out: GI
Echinochloa crus-galli [18] = test: Post emergence herbicidal activity against Echinochloa crus-galli (barnyard grass) seedlings assessed as plant growth inhibition at 37.5 g ai/ha measured 15 days after compound treatment under greenhouse conditions; format: functional; conditions: 360 h, read-out: GI
Brassica juncea [19] = test: Post-emergence herbicidal activity against Brassica juncea seedlings assessed as plant growth inhibition at 150 g ai/ha measured 15 days after compound treatment under greenhouse conditions; format: functional; conditions: 360 h, read-out: GI

SMILES | inhibition of growth at 37.5 g/ha (Amaranthus retroflexus [1]) | inhibition of growth at 75 g/ha (Echinochloa crus-galli [2]) | inhibition of growth at 150 g/ha (Setaria faberi [3]) | inhibition of growth at 75 g/ha (Amaranthus retroflexus [4]) | inhibition of growth at 37.5 g/ha (Chenopodium album [5]) | inhibition of growth at 150 g/ha (Echinochloa crus-galli [6]) | inhibition of growth at 37.5 g/ha (Brassica juncea [7]) | inhibition of growth at 75 g/ha (Digitaria sanguinalis [8]) | inhibition of growth at 37.5 g/ha (Setaria faberi [9]) | inhibition of growth at 150 g/ha (Digitaria sanguinalis [10]) | inhibition of growth at 150 g/ha (Amaranthus retroflexus [11]) | inhibition of growth at 150 g/ha (Chenopodium album [12]) | inhibition of growth at 75 g/ha (Chenopodium album [13]) | inhibition of growth at 75 g/ha (Brassica juncea [14]) | pKi [15] | inhibition of growth at 75 g/ha (Setaria faberi [16]) | inhibition of growth at 37.5 g/ha (Digitaria sanguinalis [17]) | inhibition of growth at 37.5 g/ha (Echinochloa crus-galli [18]) | inhibition of growth at 150 g/ha (Brassica juncea [19])
Cc1nn(-c2cc3nc(SCCC(=O)O)sc3cc2F)c(=O)n1C(F)F | 60% | < 50% | < 50% | ≥ 90% | 80% | 50% | 60% | 50% | < 50% | 50% | ≥ 90% | ≥ 90% | ≥ 90% | ≥ 90% | 5.78 | 50% | < 50% | < 50% | ≥ 90%
CCCCSc1nc2cc(-n3nc(C)n(C(F)F)c3=O)c(F)cc2s1 | – | – | 80% | – | – | 60% | – | – | – | 80% | 60% | < 50% | – | – | 6.68 | – | – | – | 60%
CCOC(=O)C(C)Sc1nc2cc(-n3nc(C)n(C(F)F)c3=O)c(Cl)cc2s1 (centres undefined) | – | – | 80% | – | – | 80% | – | – | – | 80% | ≥ 90% | 60% | – | – | 5.47 | – | – | – | ≥ 90%
CCCSc1nc2cc(-n3nc(C)n(C(F)F)c3=O)c(F)cc2s1 | – | – | 60% | – | – | 60% | – | – | – | 80% | 60% | < 50% | – | – | 6.52 | – | – | – | 60%
CSc1nc2cc(-n3nc(C)n(C(F)F)c3=O)c(F)cc2s1 | – | – | 50% | – | – | 50% | – | – | – | < 50% | 80% | < 50% | – | – | 6.29 | – | – | – | < 50%
CCOC(=O)CSc1nc2cc(-n3nc(C)n(C(F)F)c3=O)c(Cl)cc2s1 | – | – | 80% | – | – | ≥ 90% | – | – | – | ≥ 90% | 80% | < 50% | – | – | 5.86 | – | – | – | ≥ 90%
C=CCSc1nc2cc(-n3nc(C)n(C(F)F)c3=O)c(F)cc2s1 | – | – | 60% | – | – | 80% | – | – | – | 60% | 50% | < 50% | – | – | 6.70 | – | – | – | < 50%
COC(=O)Sc1nc2cc(-n3nc(C)n(C(F)F)c3=O)c(Cl)cc2s1 | – | – | < 50% | – | – | < 50% | – | – | – | < 50% | < 50% | < 50% | – | – | – | – | – | – | < 50%
C=CCSc1nc2cc(-n3nc(C)n(C(F)F)c3=O)c(Cl)cc2s1 | – | – | 60% | – | – | 60% | – | – | – | < 50% | 60% | < 50% | – | – | 5.50 | – | – | – | 60%
